Columns and labels:
Type in all cases: cell-based
[1] = test system: Ascochyta pisi; experiment: Antifungal activity assay (microspectrophotometry); conditions: strain MUCL30164, host Pisum, inoculum Sp, period of incubation in AFP-solution 48
Method: (§1) Antifungal activity was measured by microspectrophotometry as previously described (Broekaert, 1990, FEMS Microbiol Lett, 69:55-60). Routinely, tests were performed with 20 μl of a (filter-sterilized) test solution and 80 μl of a suspension of fungal spores (2×10^4 spores/ml) in half strength potato dextrose broth (1/2 PDB). […] Control microcultures contained 20 μl of sterile distilled water and 80 μl of the fungal spore suspension.
(§2) Unless otherwise stated the test organism was Fusarium culmorum (strain IMI 180420) and incubation was done at 25° C. for 48 hours. Percent growth inhibition is defined as 100 times the ratio of the corrected absorbance of the control microculture minus the corrected absorbance of the test microculture over the corrected absorbance at 595 nm of the control microculture. The corrected absorbance values equal the absorbance at 595 nm of the culture measured after 48 hours minus the absorbance at 595 nm measured after 30 min.
(§3) The antifungal potency of the purified proteins was assessed on different plant pathogenic fungi, using the assay described in Example 1. Growth of fungi, collection and harvest of fungal spores and preparation of mycelial fragments were done as previously described (Broekaert et al, 1990, FEMS Microbiol Lett, 69:55-60). Serial dilutions of the antifungal proteins were applied to the fungi, either using growth medium SMF- (the synthetic growth medium of Example 1), medium SMF+ (medium SMF- supplemented with 1 mM CaCl2 and 50 mM KCl), growth medium 1/2 PDB- (half strength potato dextrose broth as in Example 1) or growth medium 1/2 PDB+ (medium 1/2 PDB- supplemented with 1 mM CaCl2 and 50 mM Kcl). The percent growth inhibition was measured by microspectrophotometry. The concentration required for 50% growth inhibition after 48 h of incubation (IC50 value) was calculated from the dose-reponse curves.
(§4) The abbreviations used are: IC50 =concentration required for 50% growth inhibition determined as described in Example 1; ND=not determined; Sp=spores; PrSp=spores pregerminated in the medium for 24 hours; MF=mycelial fragments preincubated for 48 hours in the medium prior to addition of the proteins; BHR=broad host range; SF=saprophytic fungus; SMF-=synthetic growth medium as described in Example 1; SMF+=SMF- supplemented with 1 mM CaCl2 and 50 mM KCl; 1/2PDB-=half strength potato dextrose broth as described in Example 1; 1/2PDB+=1/2PDB- supplemented with 1 mM CaCl2 and 50 mM KCl.

[2] = test system: Botrytis cinerea; experiment: Antifungal activity assay (microspectrophotometry); conditions: strain K1147, host BHR, inoculum Sp, period of incubation in AFP-solution 48
Method: as §1, §2, §3, §4

[3] = test system: Cladosporium sphaerospermum; experiment: Antifungal activity assay (microspectrophotometry); conditions: strain K0791, SF, inoculum Sp, period of incubation in AFP-solution 48
Method: as §1, §2, §3, §4

[4] = test system: Fusarium culmorum; experiment: Antifungal activity assay (microspectrophotometry); conditions: for IC50: host Cereals, inoculum Sp, period of incubation in AFP-solution 48
Method: as §1, §2, §3, §4

[5] = test system: Mycoshpaerella fijiensis; experiment: Antifungal activity assay (microspectrophotometry); conditions: strain FUL549; host Musa; medium 1/2PDB+; inoculum MF; period of incubation in AFP-solution 96
Method: as §1, §2, §3, §4

[6] = test system: Penicillum digitatum; experiment: Antifungal activity assay (microspectrophotometry); conditions: host Citrus fruit, inoculum Sp, period of incubation in AFP-solution 48
Method: as §1, §2, §3, §4

[7] = test system: Septoria tritici; experiment: Antifungal activity assay (microspectrophotometry); conditions: strain K1097, host Triticum, inoculum Sp, period of incubation in AFP-solution 48
Method: as §1, §2, §3, §4

[8] = test system: Trichoderma viride; experiment: Antifungal activity assay (microspectrophotometry); conditions: strain K1127, SF, inoculum Sp, period of incubation in AFP-solution 48
Method: as §1, §2, §3, §4

[9] = test system: Verticillium albo-atrum; experiment: Antifungal activity assay (microspectrophotometry); conditions: strain K0937, host Lycoperisicum, inoculum Sp, period of incubation in AFP-solution 48
Method: as §1, §2, §3, §4

[10] = test system: Alternaria brassicae; experiment: Antifungal activity assay (microspectrophotometry); conditions: for IC50: host Brassica, inoculum Sp, period of incubation in AFP-solution 66
Method: as §1, §2
as §3, with “The concentration required for 50% growth inhibition after 48 h of incubation (IC50 value) was calculated from the dose-reponse curves.” left out
as §4

[11] = test system: Alternaria longipes; experiment: Antifungal activity assay (microspectrophotometry); conditions: strain CBS620.83, host Nicotiana, inoculum Sp, period of incubation in AFP-solution 70
Method: as §1, §2
as §3, with “The concentration required for 50% growth inhibition after 48 h of incubation (IC50 value) was calculated from the dose-reponse curves.” left out
as §4

[12] = test system: Cercospora beticola; experiment: Antifungal activity assay (microspectrophotometry); conditions: strain SES; host Beta; medium 1/2PDB+; inoculum PrSp; period of incubation in AFP-solution
Method: as §1, §2
as §3, with “The concentration required for 50% growth inhibition after 48 h of incubation (IC50 value) was calculated from the dose-reponse curves.” left out
as §4

[13] = test system: Leptospaeria maculans; experiment: Antifungal activity assay (microspectrophotometry); conditions: for antifungal activity on Leptospaeria maculans (in words): in 1/2PDB+; for IC50: host Brassica
Method: as §1, §2
as §3, with “The concentration required for 50% growth inhibition after 48 h of incubation (IC50 value) was calculated from the dose-reponse curves.” left out
as §4

[14] = test system: hyphae of Fusarium culmorum; experiment: Morphological effect on hyphae
[15] = test system: fungi; experiment: Morphological effect on fungal hyphae (fungi in general)
[16] = strain LM36uea, medium 1/2PDB+, inoculum Sp, period of incubation in AFP-solution 48
[17] = strain LM36uea, medium 1/2PDB-, inoculum Sp, period of incubation in AFP-solution 48
[18] = strain SES1, medium 1/2PDB+, inoculum PrSp, period of incubation in AFP-solution 120
[19] = strain SES2, medium 1/2PDB+, inoculum PrSp, period of incubation in AFP-solution 120

Row | Substance | IC50 ([1]; medium SMF+) [µg/mL] | IC50 ([1]; medium SMF-) [µg/mL] | IC50 ([2]; medium 1/2PDB+) [µg/mL] | IC50 ([2]; medium 1/2PDB-) [µg/mL] | IC50 ([3]; medium 1/2PDB+) [µg/mL] | IC50 ([3]; medium 1/2PDB-) [µg/mL] | IC50 ([4]; strain IMI180420, medium SMF+) [µg/mL] | IC50 ([4]; strain IMI180420, medium SMF-) [µg/mL] | IC50 ([4]; strain K0311, medium 1/2PDB+) [µg/mL] | IC50 ([4]; strain K0311, medium 1/2PDB-) [µg/mL] | IC50 [5] [µg/mL] | IC50 ([6]; strain K0679, medium 1/2PDB-) [µg/mL] | IC50 ([6]; strain K0879, medium 1/2PDB+) [µg/mL] | IC50 ([7]; medium 1/2PDB+) [µg/mL] | IC50 ([7]; medium 1/2PDB-) [µg/mL] | IC50 ([8]; medium 1/2PDB+) [µg/mL] | IC50 ([8]; medium 1/2PDB-) [µg/mL] | IC50 ([9]; medium 1/2PDB+) [µg/mL] | IC50 ([9]; medium 1/2PDB-) [µg/mL] | IC50 ([10]; medium SMF+) [µg/mL] | further results
1 | Ah-AMP1: Aesculus hippocastanum antimicrobial protein 1; 5 kDa polypeptide purified from seeds, 50 amino acids, SEQ ID NO 2 (LCNERPSQTWSGNCGNTAHCDKQCQDWEKASHGACHKRENHWKCFCYFNC) | 15 | 0.8 | > 100 | 25 | 12 | 0.5 | 25 | 1.5 | > 100 | 12 | 0.75 | 6 | 25 | 1.5 | 0.5 | > 100 | > 100 | > 100 | 6 | 3 | IC50 ([10]; medium SMF-): 1.5 µg/mL; reduction of activity in medium SMF- versus SMF+ ([10]; on Alternaria brassicae): two-fold; IC50 ([11]; medium SMF+): 100 µg/mL; IC50 ([11]; medium SMF-): 25 µg/mL; IC50 [12]: 1.5 µg/mL; antifungal activity on Leptospaeria maculans (in words) [13]: highly active; IC50 [13, 16]: 6 µg/mL; IC50 [13, 17]: 0.5 µg/mL; IC50 [13, 18]: < 0.75 µg/mL; IC50 [13, 19]: < 0.75 µg/mL; hyper-branching of hyphae of Fusarium culmorum [14]: does not cause hyper-branching; hyperbranching of fungi [15]: do not; interference with fungal growth processes (hyphal length) [15]: reduction in hyphal length
2 | Hs-AFP1: Heuchera sanquinea antifungal protein 1; 5 kDa polypeptide purified from seeds, 54 amino acids, SEQ ID NO 1 (DGVKLCDVPSGTWSGHCGSSSKCSQQCKDREHFAYGGACHYQFPSVKCFCKRQC) | > 5 | 1.5 | 25 | 6 | 3 | 1 | 1 | 0.5 | 3 | 1 | 12.5 | 1 | 3 | 3 | 0.5 | > 100 | 15 | 30 | 12 | 3 | antifungal activity on Fusarium culmorum (in words) ([4]; in 1/2PDB+): highly active; IC50 ([10]; medium SMF-): 1.5 µg/mL; IC50 ([11]; medium SMF+): 6 µg/mL; IC50 ([11]; medium SMF-): 0.75 µg/mL; IC50 [12]: 1.5 µg/mL; antifungal activity on Leptospaeria maculans (in words) [13]: is not; IC50 [13, 16]: > 100 µg/mL; IC50 [13, 17]: 25 µg/mL; IC50 [13, 18]: > 100 µg/mL; IC50 [13, 19]: > 100 µg/mL; hyper-branching of hyphae of Fusarium culmorum [14]: causes hyper-branching; hyperbranching of fungi [15]: cause hyperbranching; interference with fungal growth processes (hyphal length) [15]: reduction in hyphal length
